# In ChEMBL document CHEMBL4422651, “Revisiting tubercidin against kinetoplastid parasites: Aromatic substitutions at position 7 improve activity and reduce toxicity” (Eur J Med Chem, 2019):
# Calls of active or inactive are those of the source. No cut-off for these calls is given here.
# Assays:
# [1] = Inhibition of [3H]-adenosine transport at Trypanosoma brucei Adenosine transporter P2 expressed in pentamidine/diminazene/melaminophenyl arsenical resistant Trypanosoma brucei B48 bloodstream forms after 60 secs by scintillation counting analysis
# [2] = Drug metabolism in mouse liver S9 fraction assessed as UGT-mediated metabolism by measuring parent compound remaining at 5 uM measured after 60 mins in presence of UDPGA by UPLC analysis; format: ADME, subcellular; conditions: s9, 1 h
# CYP450 [3] = target: T1, CYP450 (Homo sapiens, UniProt P04798+P05177+P05181+P08684+P10632+P10635+P11509+P11712+P13584+P20813+P20815+P20853+P24462+P24903+P33260+P33261+P51589+P78329+P98187+Q02928+Q08477+Q16678+Q16696+Q5TCH4+Q6VVX0+Q7Z449+Q8TAV3+Q96SQ9+Q9HB55); test: Drug metabolism in human liver S9 fraction assessed as CYP450-mediated metabolism by measuring parent compound remaining at 5 uM measured immediately in presence of NADPH by UPLC analysis; format: ADME, subcellular; conditions: read-out: Stability
# Trypanosoma brucei [4] = test: Antitrypanosomal activity against wild type Trypanosoma brucei Lister 427 after 48 hrs by alamar blue assay; format: functional, organism-based; conditions: Lister 427, 48 h
# Trypanosoma brucei [5] = test: Resistance factor, ratio of EC50 for pentamidine/diminazene/melaminophenyl arsenical resistant Trypanosoma brucei B48 to EC50 for wild type Trypanosoma brucei Lister 427; format: functional
# CYP450 [6] = target: T1, CYP450; test: Drug metabolism in human liver S9 fraction assessed as CYP450-mediated metabolism by measuring parent compound remaining at 5 uM measured after 60 mins in presence of NADPH by UPLC analysis; format: ADME, subcellular; conditions: read-out: Stability
# CYP450 [7] = test: Drug metabolism in rat liver S9 fraction assessed as CYP450-mediated metabolism by measuring parent compound remaining at 5 uM measured after 60 mins in presence of NADPH by UPLC analysis; format: ADME, subcellular; conditions: read-out: Stability
# UGT [8] = test: Drug metabolism in mouse liver S9 fraction assessed as UGT-mediated metabolism by measuring parent compound remaining at 5 uM measured after 30 mins in presence of UDPGA by UPLC analysis; format: ADME, subcellular; conditions: read-out: Stability
# [9] = Selectivity index, ratio of EC50 for human MRC5 cells to EC50 for Trypanosoma brucei rhodesiense STIB-900; format: toxicity; conditions: read-out: Ratio EC50
# [10] = Selectivity index, ratio of EC50 for human MRC5 cells to EC50 for Trypanosoma brucei brucei Squib 427; format: toxicity; conditions: read-out: Ratio EC50
# [11] = test system: Trypanosoma brucei brucei; test: Antitrypanosomal activity against Trypanosoma brucei brucei Squib 427 after 48 hrs by alamar blue assay; format: functional, organism-based; conditions: Squib 427, 48 h
# CYP450 [12] = test: Drug metabolism in rat liver S9 fraction assessed as CYP450-mediated metabolism by measuring parent compound remaining at 5 uM measured after 30 mins in presence of NADPH by UPLC analysis; format: ADME, subcellular; conditions: read-out: Stability
# CYP450 [13] = test: Drug metabolism in mouse liver S9 fraction assessed as CYP450-mediated metabolism by measuring parent compound remaining at 5 uM measured immediately in presence of NADPH by UPLC analysis; format: ADME, subcellular; conditions: read-out: Stability
# [14] = test system: UDP-glucuronosyltransferases (UGTs); test: Drug metabolism in human liver S9 fraction assessed as UGT-mediated metabolism by measuring parent compound remaining at 5 uM measured after 15 mins in presence of UDPGA by UPLC analysis; format: ADME, subcellular; conditions: s9, 0.25 h
# Trypanosoma brucei [15] = test: Antitrypanosomal activity against Trypanosoma brucei TbAT1-KO after 48 hrs by alamar blue assay; format: functional, organism-based
# CYP450 [16] = target: T1, CYP450; test: Drug metabolism in human liver S9 fraction assessed as CYP450-mediated metabolism by measuring parent compound remaining at 5 uM measured after 30 mins in presence of NADPH by UPLC analysis; format: ADME, subcellular; conditions: read-out: Stability
# CYP450 [17] = test: Drug metabolism in rat liver S9 fraction assessed as CYP450-mediated metabolism by measuring parent compound remaining at 5 uM measured after 15 mins in presence of NADPH by UPLC analysis; format: ADME, subcellular; conditions: read-out: Stability
# Trypanosoma brucei [18] = test: Resistance factor, ratio of EC50 for isometamidium resistant Trypanosoma brucei […] to EC50 for wild type Trypanosoma brucei Lister 427; format: functional
# MRC5 = test: Cytotoxicity against human MRC5 cells assessed as reduction in cell viability after 3 days by resazurin dye-based assay; conditions: MRC5, 72 h
# [19] = Drug metabolism in rat liver S9 fraction assessed as UGT-mediated metabolism by measuring parent compound remaining at 5 uM measured after 30 mins in presence of UDPGA by UPLC analysis; format: ADME, subcellular; conditions: s9, 0.5 h
# [20] = Drug metabolism in rat liver S9 fraction assessed as UGT-mediated metabolism by measuring parent compound remaining at 5 uM measured after 60 mins in presence of UDPGA by UPLC analysis; format: ADME, subcellular; conditions: s9, 1 h
# Trypanosoma brucei [21] = test: Antitrypanosomal activity against isometamidium resistant Trypanosoma brucei ISMR1 after 48 hrs by alamar blue assay; format: functional, organism-based; conditions: ISMR1, 48 h
# CYP450 [22] = test: Drug metabolism in rat liver S9 fraction assessed as CYP450-mediated metabolism by measuring parent compound remaining at 5 uM measured immediately in presence of NADPH by UPLC analysis; format: ADME, subcellular; conditions: read-out: Stability
# [23] = Inhibition of [3H]-adenosine transport at Trypanosoma brucei Adenosine transporter P1 expressed in pentamidine/diminazene/melaminophenyl arsenical resistant Trypanosoma brucei B48 bloodstream forms after 60 secs by scintillation counting analysis
# UGT [24] = test: Drug metabolism in rat liver S9 fraction assessed as UGT-mediated metabolism by measuring parent compound remaining at 5 uM measured immediately in presence of UDPGA by UPLC analysis; format: ADME, subcellular; conditions: read-out: Stability
# [25] = test system: UDP-glucuronosyltransferases (UGTs); test: Drug metabolism in human liver S9 fraction assessed as UGT-mediated metabolism by measuring parent compound remaining at 5 uM measured after 30 mins in presence of UDPGA by UPLC analysis; format: ADME, subcellular; conditions: s9, 0.5 h
# CYP450 [26] = test: Drug metabolism in mouse liver S9 fraction assessed as CYP450-mediated metabolism by measuring parent compound remaining at 5 uM measured after 60 mins in presence of NADPH by UPLC analysis; format: ADME, subcellular; conditions: read-out: Stability
# UGT [27] = test: Drug metabolism in rat liver S9 fraction assessed as UGT-mediated metabolism by measuring parent compound remaining at 5 uM measured after 15 mins in presence of UDPGA by UPLC analysis; format: ADME, subcellular; conditions: read-out: Stability
# CYP450 [28] = test: Drug metabolism in mouse liver S9 fraction assessed as CYP450-mediated metabolism by measuring parent compound remaining at 5 uM measured after 15 mins in presence of NADPH by UPLC analysis; format: ADME, subcellular; conditions: read-out: Stability
# Trypanosoma congolense = test: Antitrypanosomal activity against Trypanosoma congolense by resazurin assay; format: functional, organism-based
# CYP450 [29] = target: T1, CYP450; test: Drug metabolism in human liver S9 fraction assessed as CYP450-mediated metabolism by measuring parent compound remaining at 5 uM measured after 15 mins in presence of NADPH by UPLC analysis; format: ADME, subcellular; conditions: read-out: Stability
# UGT [30] = test: Drug metabolism in mouse liver S9 fraction assessed as UGT-mediated metabolism by measuring parent compound remaining at 5 uM measured after 15 mins in presence of UDPGA by UPLC analysis; format: ADME, subcellular; conditions: read-out: Stability
# UGT [31] = test: Drug metabolism in mouse liver S9 fraction assessed as UGT-mediated metabolism by measuring parent compound remaining at 5 uM measured immediately in presence of UDPGA by UPLC analysis; format: ADME, subcellular; conditions: read-out: Stability
# CYP450 [32] = test: Drug metabolism in mouse liver S9 fraction assessed as CYP450-mediated metabolism by measuring parent compound remaining at 5 uM measured after 30 mins in presence of NADPH by UPLC analysis; format: ADME, subcellular; conditions: read-out: Stability
# UGT [33] = target: T2, UGT (Homo sapiens, UniProt O60656+O75310+O75795+P06133+P0DTE4+P0DTE5+P16662+P19224+P22309+P22310+P35503+P35504+P36537+P54855+Q6UWM9+Q9BY64+Q9HAW7+Q9HAW8+Q9HAW9); test: Drug metabolism in human liver S9 fraction assessed as UGT-mediated metabolism by measuring parent compound remaining at 5 uM measured immediately in presence of UDPGA by UPLC analysis; format: ADME, subcellular; conditions: read-out: Stability
# [34] = test system: Trypanosoma brucei rhodesiense; test: Antitrypanosomal activity against Trypanosoma brucei rhodesiense STIB-900 after 48 hrs by alamar blue assay; format: functional, organism-based; conditions: STIB-900, 48 h
# Trypanosoma cruzi = test: Antitrypanosomal activity against nifurtimox-sensitive Trypanosoma cruzi Tulahuen CL2 harboring beta-galactosidase infected in human MRC5 cells after 7 days by resazurin dye-based assay; format: functional, organism-based
# UGT [35] = target: T2, UGT; test: Drug metabolism in human liver S9 fraction assessed as UGT-mediated metabolism by measuring parent compound remaining at 5 uM measured after 60 mins in presence of UDPGA by UPLC analysis; format: ADME, subcellular; conditions: read-out: Stability
# Trypanosoma brucei [36] = test: Resistance factor, ratio of EC50 for Trypanosoma brucei TbAT1-KO to EC50 for wild type Trypanosoma brucei Lister 427; format: functional
# Trypanosoma brucei [37] = test: Antitrypanosomal activity against pentamidine/diminazene/melaminophenyl arsenical resistant Trypanosoma brucei B48 after 48 hrs by alamar blue assay; format: functional, organism-based; conditions: B48, 48 h
compound,measurement,setting,value
Nc1ncnc2c1c(-c1ccccn1)cn2[C@@H]1O[C@H](CO)[C@@H](O)[C@H]1O,Ki,[1],4570 nM
same,Stability,[2],122%
same,"remaining at 0 min, 5 µM",CYP450 [3],100%
same,EC50,Trypanosoma brucei [4],170 nM
same,Ratio EC50,Trypanosoma brucei [5],1.6
same,"remaining at 1 h, 5 µM",CYP450 [6],82%
same,"remaining at 1 h, 5 µM",CYP450 [7],31%
same,"remaining at 0.5 h, 5 µM",UGT [8],102%
same,selectivity ratio,[9],487
same,selectivity ratio,[10],49
same,EC50,[11],310 nM
same,"remaining at 0.5 h, 5 µM",CYP450 [12],77%
same,"remaining at 0 min, 5 µM",CYP450 [13],100%
same,Stability,[14],123%
same,EC50,Trypanosoma brucei [15],400 nM
same,"remaining at 0.5 h, 5 µM",CYP450 [16],102%
same,"remaining at 0.25 h, 5 µM",CYP450 [17],89%
same,Ratio EC50,Trypanosoma brucei [18],2.5
same,EC50,MRC5,15100 nM
same,Stability,[19],125%
same,Stability,[20],122%
same,EC50,Trypanosoma brucei [21],430 nM
same,"remaining at 0 min, 5 µM",CYP450 [22],100%
same,Ki,[23],2540 nM
same,"remaining at 0 min, 5 µM",UGT [24],100%
same,Stability,[25],121%
same,"remaining at 1 h, 5 µM",CYP450 [26],1.9%
same,"remaining at 0.25 h, 5 µM",UGT [27],115%
same,"remaining at 0.25 h, 5 µM",CYP450 [28],36.5%
same,EC50,Trypanosoma congolense,200 nM
same,"remaining at 0.25 h, 5 µM",CYP450 [29],96%
same,"remaining at 0.25 h, 5 µM",UGT [30],112%
same,"remaining at 0 min, 5 µM",UGT [31],100%
same,"remaining at 0.5 h, 5 µM",CYP450 [32],12.6%
same,"remaining at 0 min, 5 µM",UGT [33],100%
same,EC50,[34],31 nM
same,Activity,Trypanosoma cruzi,inactive
same,"remaining at 1 h, 5 µM",UGT [35],92%
same,Ratio EC50,Trypanosoma brucei [36],2.4
same,EC50,Trypanosoma brucei [37],270 nM
